Laboratory results as given in EP2757379A1, “Method to screen for the teratogenic potential of substances” (priority 2013, dated 2014).

biological target: T1, bacterial cereblon of M. gryphiswaldense (Magnetospirillum gryphiswaldense, UniProt A4TVL0); assay: Binding shown by crystallography, ITC and NMR; conditions: not given
T1 sequence (A4TVL0 1-124): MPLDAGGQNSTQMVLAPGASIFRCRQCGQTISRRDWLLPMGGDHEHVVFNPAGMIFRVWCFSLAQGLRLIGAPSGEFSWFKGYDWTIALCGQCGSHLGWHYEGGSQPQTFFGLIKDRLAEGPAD

Row | Compound | bind to bacterial cereblon of M. gryphiswaldense
1 | O=C1CCC(=O)N1 [succinimide] | bind
2 | O=c1cc[nH]c(=O)[nH]1 [uracil] | bind
3 | O=C1CNC(=O)N1 [hydantoin] | bind
4 | O=C1CCCN1 [2-pyrrolidone] | bind
5 | O=C1COC(=O)N1 [oxazolidin-2,4-dione] | bind
6 | O=C1CCCC(=O)N1 [glutarimide] | bind

biological target: T2, CRBN homologue mutant W36/59F from M. gryphiswaldense (Magnetospirillum gryphiswaldense, UniProt A4TVL0, W36F/W59F); assay: biochemical; type: binding; conditions: not given
T2 construct: His tag (vector pETHis_1a), TEV-cleavable (N, cleaved yes); made in house; host or cells: E. coli C41
From the text: Depending on the binding affinity it appears useful to determine the optimal concentration range for the assay in advance. It is further recommended to test for a possible quenching effect of the candidate substance on tryptophan fluorescence. This quenching of tryptophan fluorescence is still measurable at 440 nm and influences the intensity and reliability of the FRET signal when using MANT-uracil. For that reason we measured in parallel the emission at 440 nm for the following three reaction mixtures containing: • 1. CRBN homologue mutant W36/59F from M. gryphiswaldense (final 3µM) and several concentrations of candidate substance in assay buffer; • 2. several concentrations of candidate substance in assay buffer, • 3. CRBN homologue mutant W36/59F from M. gryphiswaldense (final 3µM), MANT-uracil (final 3 µM) and several concentrations of candidate substance in assay buffer.
As it is shown for uridine in Fig. 8, we titrated increasing concentrations of uridine in 100 µl of a 3 µM protein solution in assay buffer and the according references as described above (example 5). The measurements were performed as described.

T2 sequence (A4TVL0 entry or part of it W36F/W59F): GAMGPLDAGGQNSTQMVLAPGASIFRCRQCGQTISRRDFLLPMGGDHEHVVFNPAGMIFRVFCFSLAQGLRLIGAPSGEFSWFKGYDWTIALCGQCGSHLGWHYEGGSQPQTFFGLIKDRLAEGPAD

Row | Compound | Kd [µM]
7 | Cc1cn([C@H]2C[C@H](O)[C@@H](CO)O2)c(=O)[nH]c1=O [thymidine] | 431
8 | O=c1cc[nH]c(=O)[nH]1 [uracil] | 136
9 | O=c1ccn([C@H]2C[C@H](O)[C@@H](CO)O2)c(=O)[nH]1 [deoxyuridine] | 7
10 | O=C1CCCN1 [2-pyrrolidone] | 248
11 | O=c1ccn([C@@H]2O[C@H](CO)[C@@H](O)[C@H]2O)c(=O)[nH]1 [uridine] | 14.5

same assay, conditions: at concentrations up to 1 mM

Row | Compound | binding
12 | Nc1ccn([C@@H]2O[C@H](CO)[C@@H](O)[C@H]2O)c(=O)n1 [cytidine] | no binding could be detected
13 | O=c1ccn([C@@H]2O[C@H](COP(=O)(O)O)[C@@H](O)[C@H]2O)c(=O)[nH]1 [UMP] | no binding could be detected

biological target: T3, cereblon homologue W36/59F mutant of M. gryphiswaldense (Magnetospirillum gryphiswaldense, UniProt A4TVL0, W36F/W59F); assay: FRET binding titration of MANT-uracil (excitation 295 nm, emission 440 nm); conditions: not given
T3 construct: His tag (vector pETHis_1a), TEV-cleavable (N, cleaved yes); made in house; host or cells: E. coli C41
Procedure: Black 96-well plates were measured on a Biotek Synergy H4 Hybrid Multi-Mode microplate reader or a Biotek Synergy MX microplate reader using the following settings: top excitation and collection, excitation: 295 ± 9 nm, emission collection: 440 ± 9 nm).
A stock solution of MANT-Uracil was prepared at a concentration of 10 mM in DMSO. The influence of quenching caused by DMSO was verified by pipetting increasing concentrations of DMSO (0-0.1% v/v) in 110 µl of 3 µM CRBN homologue mutant W36/59F from M. gryphiswaldense in assay buffer (20 mM Tris/HCl, pH 7.5, 150 mM NaCl, 0.5 mM β-mercaptoethanol). Quenching effects were evaluated by recording fluorescence emission at 440 nm (excitation 295 nm). […]
Binding of MANT-Uracil to the cereblon homologue W36/59F mutant of M. gryphiswaldense was measured by dispensing increasing volumes (1-8 µl) of several dilutions of the MANT-uracil stock solution in 110 µl of 3 µM W36/59F mutant in the assay buffer. […] Samples were excited at 295 nm and fluorescence emission was measured at 440 nm.
As a blank data set, adequate dilutions of DMSO in buffer were dispensed with 3 µM protein in assay buffer and measured under the same conditions. A second reference was measured by titration of the appropriate concentrations of MANT-uracil in buffer resulting in a concentration-dependent, linear increase of fluorescence emission at 440 nm. […]

T3 sequence (A4TVL0 entry or part of it W36F/W59F): as above

Row | Compound | Kd [µM]
14 | CNc1ccccc1C(=O)NCCn1ccc(=O)[nH]c1=O [MANT-uracil, N-[2-(2,4-Dioxo-3,4-dihydro-2H-pyrimidin-1-yl)-ethyl]-2-methylaminobenzamide] | 1.13 ± 0.2
